Measured values taken from doi:10.1101/2025.03.14.643404, “A Bivalent Molecular Glue Linking Lysine Acetyltransferases to Oncogene-induced Cell Death” (bioRxiv, 2025).
“Also recorded” adds a separate entry of the source.

How the values were obtained:
Assay type in all cases: cell-based, human
[1] = test system: B and T cells isolated from primary tonsillar lymphocytes; assay: Viability of primary tonsillar lymphocytes, 72 h; settings: primary tonsillar lymphocytes of two donors, compared with SUDHL5
H3K27ac = assay: ChIP-seq for H3K27ac in SUDHL5; settings: SUDHL5, 1 nM, 1 hour
Method: 25–30 million cells were treated with TCIP3 or DMSO for indicated timepoints. Cells were washed in PBS containing TCIP3 or DMSO and crosslinked for 11 min in CiA Fix Buffer (50 mM HEPES pH 8.0, 1 mM EDTA, 0.5 mM EGTA, 100 mM NaCl) with addition of formaldehyde to a final concentration of 1%. The crosslinking reaction was quenched by glycine added at 0.125 M final concentration. Crosslinked cells were centrifuged at 1,000 × g for 5 min. […] Library size distributions were confirmed using an Agilent Bioanalyzer and High Sensitivity DNA reagents (Agilent 5067) and concentrations determined by qPCR. […]
The data quality was checked using fastq (https://www.bioinformatics.babraham.ac.uk/projects/fastqc/). The raw reads were trimmed from adapters with cutadapt (parameters: -a […] -A […]) and raw reads were aligned to hg38 human genome assembly using bowtie2 (parameters: --local --maxins 1000). Low quality reads, duplicated reads and reads with multiple alignments were removed using samtools[120] and Picard (https://broadinstitute.github.io/picard/). macs2[121] was used to map position of peaks with FDR cutoff of 0.05. […] All browser tracks and metaprofiles shown were calculated with sequence-depth-normalized, replicate-merged (bigWigMerge[125]) and, for ChIP-seq, input-subtracted data (deeptools bigWigCompare). […]

c-MYC = assay: RNA-seq, c-MYC transcripts in SUDHL5; settings: SUDHL5, 1 nM, 2 hours
Method: Cells were plated at 1M/mL and harvested in TRIsure (Bioline 38033). RNA was extracted using Direct-zol RNA MicroPrep columns (Zymo R2062) treated with DNAseI. cDNA was prepared (Meridian Bioscience BIO-65054) and used for qPCR (Meridian Bioscience BIO-94050) using an AppliedBiosystems QuantStudio 6Pro. Primer sequences were the following:
For sequencing library preparation, rRNA was depleted (NEB E7400) and total RNA prepared into paired-end libraries (NEB E7765) and indexed (NEB E7335). Library size distributions were confirmed using an Agilent Bioanalyzer and High Sensitivity DNA reagents (Agilent 5067) and concentrations determined by qPCR. […]
Raw reads were checked for quality using fastqc (https://www.bioinformatics.babraham.ac.uk/projects/fastqc/) and trimmed from adapters using cutadapt[111] using parameters cutadapt -a […] -b […] --nextseq-trim=20 --minimum-length 1. Transcripts were quantified using kallisto[112] against the human Gencode v33 indexed transcriptome and annotations. […] Re-processed published datasets from the Sequence Read Archive (SRA) were the following: TCIP1 – SRX20228454, SRX20228455, SRX202284546, SRX20228457, SRX20228458, SRX20228459, SRX20228448, SRX20228449, SRX20228450; CDK-TCIP1 – SRX22117221, SRX22117222, SRX22117223, SRX22117224, SRX22117225, SRX22117226, SRX22117227, SRX22117228, SRX22117229).

CNC(=O)COc1cc2cc(Nc3nc(N4CCC(C(=O)N5CCN(CCC(=O)N6CCC(n7nc(N8CCCc9cc(-c%10cnn(C)c%10)c(C(F)F)cc98)c8c7CCN(C(=O)NC)C8)CC6)CC5)CC4)ncc3Cl)cc(OC)c2n(C)c1=O [TCIP3]
cytotoxicity [1]: substantially reduced cytotoxicity; also recorded: without exhibiting toxicity | H3K27ac peaks gained (H3K27ac): 533 | H3K27ac peaks lost (H3K27ac): 5,216 | c-MYC mRNA log2(fold change) (c-MYC): −2.71
